Measured values from patent publication US20190010524A1, “BIOLOGICAL METHODS FOR PREPARING A FATTY DICARBOXYLIC ACID” (Verdezyne, Inc., priority 2012, published 2019).

How the values were obtained:
[1] = tested on: Candida tropicalis strain (sAA496); test: Fermentation of coconut oil to mixed diacids at different pH; type: cell-based; conditions: coconut oil 80 g/L, 140 hours
Experimental: Autoclaved virgin coconut oil was added to the vessel to a final concentration of 80 g/L. A partially beta-oxidation blocked Candida tropicalis strain (sAA496) was inoculated to an initial OD600nm of 1.0 with a 5% inoculum and grown under the following conditions: 30° C. with shaking at about 1200 rpm, 1 vvm, initial pH 6.5 and initial volume of 1.0 L. The effect of pH on the distribution of fatty acid chain lengths was determined by manipulating the pH of the fermentation media. The pH of the fermentation was either 1) increased to pH 7.5 and controlled at that pH for the entire run, 2) allowed to drop-naturally due to the growth of the culture before controlling at pH 6.0 for the rest of the run; or 3) allowed to drop naturally due to the growth of the culture before controlling at pH 4.5 for the rest of the run. Samples were collected for GC analysis after 140 hours of fermentation time.

[2] = tested on: Candida strain ATTC 20962; test: Shake flask bioconversion of feedstocks of varying chain length (Example 72); type: cell-based; conditions: ethyl esters 1% v/v, alkanes 3% v/v
Experimental: (§1) The bioconversion tests in this Example were undertaken following a shake flask protocol. […] The YPD contained 10 g/L yeast extract, 20 g/L peptone, and 20 g/L dextrose. These cultures were then placed in a 30° C. shaking incubator at 250 rpm for 18 to 20 hours.
(§2) After this growth phase, these cultures were used to inoculate 350 ml of SP92-glycerol media dispensed into 10-250 ml wide mouth flasks in 35 ml aliquots for each strain. The SP92-glycerol media contained 6.7 g/L yeast nitrogen base, 3 g/L yeast extract, 3 g/L ammonium sulfate, 1 g/L potassium phosphate monobasic; 1 g/L potassium phosphate, dibasic, and 75 g/L glycerol (Picataggio S., et al., Biotechnology (NY) 1992 August; 10 (8):894-8). The cultures were then placed in a 30° C. shaking incubator at 300 rpm for 20 to 24 hours.
(§3) The cells were then centrifuged for 5 minutes at 3000 rpm and the supernatant discarded. The cells were resuspended in DCA3 medium supplemented with 1.0% triton-X100. DCA3 is a 0.3 M potassium phosphate buffer, pH 7.5 containing 6.7 g/L yeast nitrogen base and 50 g/L glycerol. Variations of DCA3 media recipes are known, non-limiting examples of which include the addition of dextrose and/or glycerol, the like or combinations thereof. DCA3 media, as referred to herein, can include dextrose and/or glycerol. After re-suspension, the OD600 nm for each culture was adjusted to a common OD (based on the available OD for the strain with the least growth) and 10 ml was transferred to pre-weighed 250 ml bottom baffled shake flasks. The flasks were then reweighed to determine the starting weight of the culture. The substrate to be converted was then added at 1% v/v for ethyl esters and 3% v/v for alkanes. The increased amount of alkanes added was due to their volatility to ensure that sufficient substrate remained in solution for bioconversion. The flasks were weighed once more to determine the exact amount of substrate added to each flask and were then placed, in a 30° C. shaking incubator at 300 rpm for 4 hours. Bioconversion tests for ethyl-stearate and ethyl palmitate were performed at 35° C. due to melting point limitations for these substrates.
(§4) After 48 hours, the flasks were weighed once more to determine the weight of the final culture. The cultures were mixed well by swirling and 1 ml was transferred to a pre-weighed 15 ml falcon tube containing 0.8 ml of 6N HCl. The tube was weighed to determine the density of the final culture and this number used to determine the culture volume present at the final time point. Samples were submitted to analytical for analysis by GC.

sAA1082 = test: as above; type: cell-based, Candida; conditions: for Feedstock Yield (g diacid/g added feedstock) sAA-1082: shake flask, ethyl esters 1% v/v, alkanes 3% v/v
Experimental: as §1, §2, §3, §4

sAA2178 = test: as above; type: cell-based, Candida; conditions: for Feedstock Yield (g diacid/g added feedstock) sAA-2178: shake flask, ethyl esters 1% v/v, alkanes 3% v/v
Experimental: as §1, §2, §3, §4

strain sAA1082 = test: Production of DDDA from ethyl laurate or methyl laurate feedstock (Example 67); type: cell-based, Candida
Experimental: Methyl laurate feed rates varied as follows: 0.75 g/L-h for the first 24 h; 1.2 g/L-h from 24 h to termination. Ethyl laurate was fed at a rate of 0.75 gL-h for the first 24 h; 1.28 g/L-h from 24 h to termination. […] Also at induction a co-feed of dextrose was fed at a rate of either 1.25 g/L-h or 0.9 g/L-h. In TABLE 35, data from these two ethyl laurate fermentations were compared to similar data obtained from methyl laurate fermentations run under the same conditions.

strain sAA2178 = test: Production of DDDA using sucrose or dextrose as co-feed (Example 68); type: cell-based, Candida; conditions: co-feed 0.9 g/L-h
Experimental: A pre-culture of 80 mL SP92 in a 500 mL baffled flask with foam plugs was inoculated with 1.0 mL from a frozen glycerol stock of strain sAA2178 (beta-oxidation blocked strains plus amplified CPRB, CYP52A19, ADH2a, ADH8, and HFD2) and incubated for 24 h at 30° C. and 250 RPM. […] Growth was initiated an inoculum of pre-culture to an initial OD600nm=1.0 and growth conditions of 35° C., 1000 rpm, 1 vvm, pH 5.8. Growth continued for approximately 10-12 h at which point the conversion phase was initiated by a continuous feed of ethyl laurate. […] The data from three fermentations were averaged for the comparison.

[3] = dextrose co-feed rate 0.9 g/L-h
[4] = dextrose co-feed rate 1.25 g/L-h

O=C(O)CCCCC(=O)O [Adipic Acid]
Diacid composition (fraction of total diacids) ([1]; pH 4.5): 0.32 | Diacid composition (fraction of total diacids) ([1]; pH 6.0): 0.12 | Diacid composition (fraction of total diacids) ([1]; pH 7.5): 0.05

CCCCCCCCCCCCCCCC(=O)OCC [Ethyl palmitate]
Feedstock Yield (g diacid/g added feedstock) ATTC-20962 [2]: 0.059 g diacid/g added feedstock | % improvement over ATTC 20962 sAA-1082 (sAA1082): 41.8% | Feedstock Yield (g diacid/g added feedstock) sAA-1082 (sAA1082): 0.084 g diacid/g added feedstock | % improvement over ATTC 20962 sAA-2178 (sAA2178): 51.2% | Feedstock Yield (g diacid/g added feedstock) sAA-2178 (sAA2178): 0.090 g diacid/g added feedstock

CCCCCCCCCCCC(=O)OC [Methyl Laurate]
HFA (strain sAA1082; [3]): 3.31 g/L | Lauric Acid (strain sAA1082; [3]): 8.36 g/L | Productivity (g/L-h) (strain sAA1082; [3]): 0.638 g/L-h | HFA (strain sAA1082; [4]): 3.83 g/L | Lauric Acid (strain sAA1082; [4]): 3.88 g/L | Productivity (g/L-h) (strain sAA1082; [4]): 0.832 g/L-h

CCCCCCCCCCCCCCC [n-pentadecane]
Feedstock Yield (g diacid/g added feedstock) ATTC-20962 [2]: 0.505 g diacid/g added feedstock | % improvement over ATTC 20962 sAA-1082 (sAA1082): 33.1% | Feedstock Yield (g diacid/g added feedstock) sAA-1082 (sAA1082): 0.673 g diacid/g added feedstock | % improvement over ATTC 20962 sAA-2178 (sAA2178): 16.8% | Feedstock Yield (g diacid/g added feedstock) sAA-2178 (sAA2178): 0.590 g diacid/g added feedstock

OC[C@H]1O[C@@](CO)(O[C@H]2O[C@H](CO)[C@@H](O)[C@H](O)[C@H]2O)[C@@H](O)[C@@H]1O [sucrose]
lauric acid accumulated (strain sAA2178): 1.56 g/L | production of DDDA, less than with dextrose (strain sAA2178): about 3% | production of DDDA (strain sAA2178; ethyl laurate feed, three fermentations averaged): 0.847 g/L-h

O=C(O)CCCCCCCCC(=O)O [Sebacic Acid]
Diacid composition (fraction of total diacids) ([1]; pH 4.5): 0.00 | Diacid composition (fraction of total diacids) ([1]; pH 6.0): 0.10 | Diacid composition (fraction of total diacids) ([1]; pH 7.5): 0.17

O=C(O)CCCCCCC(=O)O [Suberic Acid]
Diacid composition (fraction of total diacids) ([1]; pH 4.5): 0.68 | Diacid composition (fraction of total diacids) ([1]; pH 6.0): 0.75 | Diacid composition (fraction of total diacids) ([1]; pH 7.5): 0.62

CCCCCCCCCCCCCC(=O)OCC [Ethyl tetradecanoate]
Feedstock Yield (g diacid/g added feedstock) ATTC-20962 [2]: 0.347 g diacid/g added feedstock | % improvement over ATTC 20962 sAA-1082 (sAA1082): 16.5% | Feedstock Yield (g diacid/g added feedstock) sAA-1082 (sAA1082): 0.404 g diacid/g added feedstock | % improvement over ATTC 20962 sAA-2178 (sAA2178): 28.1% | Feedstock Yield (g diacid/g added feedstock) sAA-2178 (sAA2178): 0.444 g diacid/g added feedstock

CCCCCCCCCCCC(=O)OCC [Ethyl Laurate]
HFA (strain sAA1082; [3]): 2.48 g/L | Lauric Acid (strain sAA1082; [3]): 2.00 g/L | Productivity (g/L-h) (strain sAA1082; [3]): 0.832 g/L-h | HFA (strain sAA1082; [4]): 1.64 g/L | Lauric Acid (strain sAA1082; [4]): 0.71 g/L | Productivity (g/L-h) (strain sAA1082; [4]): 0.879 g/L-h | improvement in productivity over the methyl laurate fermentation with similar co-feed rate (strain sAA1082; higher dextrose feed): about 6%
